We go through two compounds from PMC12549899 (Nature Communications, 2025).

Values joined by “and” are separate entries in the source; they are usually repeats but may differ in a detail not shown here. Identical values can stand only once.

In the test the target is T1, DrOTOP1 A274W (Danio rerio, UniProt Q7ZWK8, A274W).
T1 construct: A previously generated codon-optimized full-length DrOTOP1[8]; (UniProt: Q7ZWK8) construct; expressed in transfected cells; host or cells: HEK-293 (CRL-1573, ATCC)
T1 sequence (Q7ZWK8 1-586 A274W): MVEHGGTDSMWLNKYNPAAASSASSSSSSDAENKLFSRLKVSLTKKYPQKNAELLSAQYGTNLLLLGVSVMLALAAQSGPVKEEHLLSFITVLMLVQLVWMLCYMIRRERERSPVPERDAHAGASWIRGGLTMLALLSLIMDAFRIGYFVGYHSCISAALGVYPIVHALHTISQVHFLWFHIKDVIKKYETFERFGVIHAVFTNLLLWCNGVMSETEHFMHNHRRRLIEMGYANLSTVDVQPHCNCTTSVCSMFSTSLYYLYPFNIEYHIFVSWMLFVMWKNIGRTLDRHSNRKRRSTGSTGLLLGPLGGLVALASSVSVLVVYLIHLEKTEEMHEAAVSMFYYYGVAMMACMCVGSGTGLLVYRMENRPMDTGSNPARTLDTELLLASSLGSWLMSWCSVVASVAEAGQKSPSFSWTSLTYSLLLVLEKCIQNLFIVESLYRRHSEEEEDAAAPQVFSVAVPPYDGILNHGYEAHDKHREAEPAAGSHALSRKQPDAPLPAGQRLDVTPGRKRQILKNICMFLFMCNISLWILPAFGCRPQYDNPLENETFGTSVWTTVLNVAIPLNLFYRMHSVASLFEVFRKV
The test is described as follows: Whole-cell patch-clamp, inhibition of acid-evoked currents, DrOTOP1 A274W. It is filed as cell-based, zebrafish (Danio rerio). The source says: We next tested mutations of the central site (L205W, A274W, F277A, E384A L385W, A388W). V201W and S389W, two additional central site mutations, were excluded from the study due to complete loss of channel activity. Mutation of E384 to alanine is expected to disrupt potential hydrogen bonding with C2.2. Of note, E384 is one of the few charged residues in the central pocket and could form a salt bridge with K281, that could also be affected by the mutation. Additionally, in our DrOTOP1_C2.2 structure, we observed that F277 underwent a substantial rearrangement, likely to avoid steric clash and accommodate C2.2 binding. Thus, we introduced the F277A mutation to test if removing this steric clash would enhance C2.2 inhibition.
HEK-293 cells (CRL-1573, ATCC) were cultured in DMEM (Thermofisher 11995073) containing 10% fetal bovine serum (Life Technology 16000044) and Penicillin-Streptomycin (100 I.U./mL) and (100 µg/mL), respectively. Cells were transfected with WT DrOTOP1 or mutant DrOTOP1 channels in 35 mm petri dishes, with ~ 500 ng DNA and 2 μL TransIT-LT1 transfection reagent (Mirus Bio Corporation, Cat # MIR2300) following the manufacturer’s protocol. All constructs were subcloned into a pcDNA3.1 vector that adds an N-terminal fusion tag consisting of an octahistidine tag followed by eGFP, a Gly-Thr-Gly-Thr linker and a 3C protease cleavage site ([…]) followed by WT DrOTOP1, WT mOTOP1, WT hOTOP1, or mutated DrOTOP1. Point mutations were generated via In-Fusion Cloning (Takara) using single-stranded DNA primers generated through IDT and sequence confirmed by Sanger sequencing (GeneWiz).
Whole-cell patch-clamp recording was performed as previously described[6],[22],[25]. Recordings were made with an Axopatch 200B amplifier, digitized with a Digidata 1322a 16-bit data acquisition system, acquired with pClamp 8.2 and analyzed with Clampfit 10 (Molecular Devices). Recordings were sampled at 5 kHz and filtered at 1 kHz. Patch Pipettes with resistance of […] were fabricated from borosilicate glass, and only recordings with a giga-Ohm seal were used in analysis. Membrane potential was held at −80 mV for the duration of recordings. At the beginning of recordings and between, cells were washed with Tyrode’s solution (see below). Once a giga-Ohm seal was reached, cells were lifted and placed in front of microcapillary tubes controlled by a Fast-Step perfusion system (Warner Instruments) so that extracellular solutions could be rapidly exchanged during each experiment.
Standard Tyrode’s solution consisted of 145 mM NaCl, 5 mM KCl, MgCl2, 2 mM CaCl2, 20 mM D-Glucose, and 10 mM HEPES (for pH 7.4). All other extracellular patch-clamp solutions contained 160 mM NMDG-Cl, 2 mM CaCl2, and the following buffers: 10 mM HEPES (for pH 7.4), 10 mM MES (for pH 6.5-5.5), 10 mM CHES for pH 10, and 10 mM HomoPIPES for (pH 5.0). pH adjusted with HCl. When adding compounds to extracellular solutions, the concentration of DMSO in solution was never higher than 0.3%. […]
All data are presented as mean ± SEM unless otherwise noted, and each data point represents an independent replicant. Inhibition of compounds was quantified as ((I2peak-I1)/(I2peak))*100, where I1 is the current immediately before wash-off and I2peak is the maximum recovered current (Supplementary Fig. 2). Hill coefficients were determined by the following equation: Y = Bmax*X^h/(Kd^h + X^h). […]

As to `C=C(C)COc1ccccc1NC(=O)c1nc[nH]c1C` [C2.2], the inhibition at 10 µM (10 µM, single cells or mean) stood at 74.6%. Moreover, the Inhibition of currents runs as follows: (10 µM, single cells or mean, mean) 72.36%; (10 µM, single cells or mean, single cells) 71.3399% and 74.8032% and 68.9769% and 72.0779%.
Take `O=C(/C(=N\O)c1ccccc1)c1ccccc1` [C11, benzil monoxime]: where the note is “100 µM, single cells”, the Inhibition of currents was 70.9091% and 73.0647% and 75.9259% and 71.7822%; testing at 100 µM gave an inhibition of 76.2%.
